Results: US20200275665A1, “PREPARATION COMPRISING AT LEAST ONE CHEMICAL FUNGICIDE AND A MIXTURE COMPRISING AUREOBASIDIUM PULLULANS STRAINS” (Erber Aktiengesellschaft, priority 2017, published 2020)
“And” between values parts separate entries of the source, which are not always exact repeats. Equal values may be shown once.

Key:
[1] = test system: Botrytis cinerea Bc97 (DSM 32469); experiment: Apple test (wound inoculation), Botrytis cinerea Bc97; type: in vivo; settings: apples Jonagold Honsel, 20° C., 6 days; Aureobasidium 5×10^6 cells/ml total; fludioxonil 0.125 g/l, cyprodinil 0.1875 g/l
Protocol: The effect of the Aureobasidium pullulans strains AP 241 (DSM 32467), AP 268 (DSM 32468), DSM 14940 and DSM 14941 (individually or in combination), together with the chemical fungicides cyprodinil and fludioxonil (individually or in combination), against the fungal plant pathogens Botrytis and Neofabreaea was determined in an apple test. 12 untreated apples of the same cultivar, having a uniform degree of maturity and size, were used for each treatment. Prior to the test, the apples were surface-sterilized for three minutes in 70% ethanol and dried in a clean bench. Four wounds, having a wound diameter of 5 mm, were made at equal distances in each apple in the equatorial plane between the calyx and the stem using a sterile pipette tip. […]
(§1) The effectiveness of the inhibition of the pathogen was calculated for test solutions 2 to 4 from the diameters of the areas of decay, which were measured at the end of the storage period. […]
(§2) According to the Colby formula (S. R. Colby “Calculating synergistic and antagonistic responses of herbicide combinations,” Weeds 15, pages 20 to 22, 1967), expected values (E) of the effect of the combination of Aureobasidium and the chemical fungicide (test solution 4) were calculated from the effectiveness (WG) figures of the individual components in test solutions 2 and 3 according to the following formula: […]

[2] = test system: Pezicula malicorticis 160622 (DSM 62715); experiment: Apple test (wound inoculation), Pezicula malicorticis 160622; type: in vivo; settings: apples Elstar Fuchshof, 20° C., 16 days; Aureobasidium overall 1×10^7 cells/ml; fludioxonil 0.125 g/l, cyprodinil 0.1875 g/l
Protocol: The effect of the Aureobasidium pullulans strains AP 241 (DSM 32467), AP 268 (DSM 32468), DSM 14940 and DSM 14941 (individually or in combination), together with the chemical fungicides cyprodinil and fludioxonil (individually or in combination), against the fungal plant pathogens Botrytis and Neofabreaea was determined in an apple test. 12 untreated apples of the same cultivar, having a uniform degree of maturity and size, were used for each treatment. Prior to the test, the apples were surface-sterilized for three minutes in 70% ethanol and dried in a clean bench. Four wounds, having a wound diameter of 5 mm, were made at equal distances in each apple in the equatorial plane between the calyx and the stem using a sterile pipette tip. Immediately after the creation of the four artificial wounds, 10 μl of different test solutions (preparations) was applied to each apple. Thereafter, the apples were stored. An area of decay formed around the wounds, the diameter of the area representing a measure of the spread of the infection with the pathogen. For the evaluation, the diameters of the punctures of 0.5 cm each were deducted from the diameter of the decay area.
The 4 test solutions that were each placed in one of the 4 wounds of each apple were: • 1. Pathogen (negative control) • 2. Pathogen and Aureobasidium pullulans (individually or in combination) • 3. Pathogen and chemical fungicide (individually or in combination) • 4. Pathogen and Aureobasidium pullulans (individually or in combination) and chemical fungicide (individually or in combination)
as §1, §2
If the measured effectiveness of the combination of the Aureobasidium pullulans strains and the chemical fungicide (test solution 4) is greater than the calculated expected value (E), this is referred to as a synergistic effect (the individual components potentiate each other in an over-additive effect). The synergism factor is a measure of the synergistic effect and was calculated as the quotient from the effectiveness of the combination of the substances or components (test solution 4) and the calculated expected value (E). […]

## Cc1cc(C2CC2)nc(Nc2ccccc2)n1 [cyprodinil]
[1]
  Mean diameter of decay areas: 2.80 cm and 3.14 cm and 2.21 cm and 2.52 cm and 3.63 cm and 3.51 cm and 3.38 cm
[2]
  Effectiveness (decrease in diameter of decay area vs. negative control): 17.0%
  Mean diameter of decay areas: 1.61 cm

## N#Cc1c[nH]cc1-c1cccc2c1OC(F)(F)O2 [fludioxonil]
[2]
  Effectiveness (decrease in diameter of decay area vs. negative control): −3.8%
  Mean diameter of decay areas: 1.91 cm
